Measured values as given in PubChem BioAssay AID256 (DTP/NCI, 2004).
Toxic doses and inconclusive results are not listed. How the source made its calls: active means survival T/C of 150% or more; inactive means T/C below 125% in these data.

Tested on: CD2F1 mice, L1210 leukemia ip, survival T/C
Assay: NCI In Vivo Anticancer Drug Screen. Data for tumor model L1210 Leukemia (intraperitoneal) in CD2F1 (CDF1) mice
Details: higher = longer survival
In short: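 Transplantable tumor in mice; compound-treated vs vehicle-treated groups. Read-out = treated/control ratio of the measured endpoint.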

[1] = endpoint: mean survival time, dose: 100.0 mg/kg/injection, schedule: Q01DX001 (ip), vehicle: saline with Tween-80
[2] = endpoint: mean survival time, dose: 100.0 mg/kg/injection, schedule: Q01DX009 (ip), vehicle: saline with Tween-80
[3] = endpoint: mean survival time, dose: 200.0 mg/kg/injection, schedule: Q01DX001 (ip), vehicle: saline with Tween-80
[4] = endpoint: mean survival time, dose: 200.0 mg/kg/injection, schedule: Q01DX009 (ip), vehicle: saline with Tween-80
[5] = endpoint: mean survival time, dose: 400.0 mg/kg/injection, schedule: Q01DX001 (ip), vehicle: saline with Tween-80
[6] = endpoint: mean survival time, dose: 400.0 mg/kg/injection, schedule: Q01DX009 (ip), vehicle: saline with Tween-80
[7] = endpoint: mean survival time, dose: 100.0 mg/kg/injection, schedule: Q01DX009 (ip), vehicle: saline
[8] = endpoint: mean survival time, dose: 200.0 mg/kg/injection, schedule: Q01DX009 (ip), vehicle: saline
[9] = endpoint: mean survival time, dose: 100.0 mg/kg/injection, schedule: Q04DX003 (ip), vehicle: saline with Tween-80
[10] = endpoint: mean survival time, dose: 200.0 mg/kg/injection, schedule: Q04DX003 (ip), vehicle: saline with Tween-80
[11] = endpoint: mean survival time, dose: 400.0 mg/kg/injection, schedule: Q04DX003 (ip), vehicle: saline with Tween-80
[12] = endpoint: mean survival time, dose: 100.0 mg/kg/injection, schedule: Q04DX002 (ip), vehicle: saline with Tween-80
[13] = endpoint: mean survival time, dose: 200.0 mg/kg/injection, schedule: Q04DX002 (ip), vehicle: saline with Tween-80
[14] = endpoint: mean survival time, dose: 400.0 mg/kg/injection, schedule: Q04DX002 (ip), vehicle: saline with Tween-80
[15] = endpoint: mean survival time, dose: 50.0 mg/kg/injection, schedule: Q04DX002 (ip), vehicle: saline with Tween-80

Measured: T/C

O=C(O)CC(=O)O.[NH-]C1CCCCC1[NH-].[Pt+2] (stereo not given)
inactive: endpoint: mean survival time, dose: 1.25 mg/kg/injection, schedule: Q01DX009 (ip), vehicle: saline sonified 110 % of control | endpoint: mean survival time, dose: 2.5 mg/kg/injection, schedule: Q01DX009 (ip), vehicle: saline sonified 119 % of control | endpoint: mean survival time, dose: 10.0 mg/kg/injection, schedule: Q01DX001 (ip), vehicle: suspension in saline 124 % of control | endpoint: mean survival time, dose: 10.0 mg/kg/injection, schedule: Q01DX009 (oral), vehicle: saline 98 % of control | endpoint: mean survival time, dose: 20.0 mg/kg/injection, schedule: Q01DX001 (oral), vehicle: saline 98 % of control | endpoint: mean survival time, dose: 20.0 mg/kg/injection, schedule: Q01DX009 (oral), vehicle: saline 109 % of control | endpoint: mean survival time, dose: 40.0 mg/kg/injection, schedule: Q01DX001 (oral), vehicle: saline 98 % of control | endpoint: mean survival time, dose: 40.0 mg/kg/injection, schedule: Q01DX009 (oral), vehicle: saline 100 % of control | endpoint: mean survival time, dose: 80.0 mg/kg/injection, schedule: Q01DX001 (oral), vehicle: saline 100 % of control | endpoint: mean survival time, dose: 160.0 mg/kg/injection, schedule: Q01DX001 (oral), vehicle: saline 100 % of control | endpoint: mean survival time, dose: 320.0 mg/kg/injection, schedule: Q01DX001 (oral), vehicle: saline 100 % of control | endpoint: mean survival time, dose: 320.0 mg/kg/injection, schedule: Q01DX009 (oral), vehicle: saline 120 % of control | endpoint: median survival time, dose: 4.0 mg/kg/injection, schedule: Q01DX009 (ip), vehicle: dextrose 110 % of control

Cc1cnc(Cl)c(Br)c1
inactive: [1] 96 % of control | [2] 104 % of control | [3] 101 % of control | [4] 100 % of control | [5] 95 % of control | [6] 106 % of control

CCOC(=O)c1ccc(OCC(=O)Nc2ccccc2)cc1
inactive: [2] 97 % of control | [4] 96 % of control | [6] 103 % of control

OC(c1cc2ccc(C(F)(F)F)cc2c2cc(C(F)(F)F)ccc12)C1CCCCN1 (stereo not given)
inactive: endpoint: mean survival time, dose: 9.4 mg/kg/injection, schedule: Q01DX009 (ip), vehicle: saline 101 % of control | endpoint: mean survival time, dose: 18.8 mg/kg/injection, schedule: Q01DX009 (ip), vehicle: saline 102 % of control | endpoint: mean survival time, dose: 37.5 mg/kg/injection, schedule: Q01DX009 (ip), vehicle: saline 96 % of control

Oc1ccc(C(=S)N2CCOCC2)cc1
inactive: [7] 100 % of control | [8] 95 % of control | endpoint: mean survival time, dose: 400.0 mg/kg/injection, schedule: Q01DX009 (ip), vehicle: saline 94 % of control

CC(C)(C)N=C=N[N+](C)(C)Cc1ccccc1
inactive: endpoint: mean survival time, dose: 6.25 mg/kg/injection, schedule: Q01DX009 (ip), vehicle: saline 95 % of control | endpoint: mean survival time, dose: 12.5 mg/kg/injection, schedule: Q01DX009 (ip), vehicle: saline 98 % of control | endpoint: mean survival time, dose: 25.0 mg/kg/injection, schedule: Q01DX009 (ip), vehicle: saline 111 % of control

ClC1CCC[N-]C1.ClC1CCC[N-]C1.O=C(O)CC(=O)O.[Pt+2] (stereo not given)
inactive: endpoint: mean survival time, dose: 12.5 mg/kg/injection, schedule: Q01DX009 (ip), vehicle: saline with Tween-80 102 % of control | endpoint: mean survival time, dose: 25.0 mg/kg/injection, schedule: Q01DX009 (ip), vehicle: saline with Tween-80 100 % of control | endpoint: mean survival time, dose: 50.0 mg/kg/injection, schedule: Q01DX009 (ip), vehicle: saline with Tween-80 104 % of control | [2] 104 % of control | [4] 94 % of control

C/C(=N\Nc1ccc([N+](=O)[O-])cc1[N+](=O)[O-])C1CCCCC1
inactive: [9] 100 % of control | [10] 91 % of control | [11] 91 % of control

COC(=O)C(Cl)(Cl)c1nc(NC(C)=O)[nH]c(=O)c1Cl
inactive: [9] 95 % of control | [10] 98 % of control | [11] 91 % of control

Cn1c(-[n+]2ccccc2)nc2c1c(=O)[nH]c(=O)n2C
inactive: endpoint: mean survival time, dose: 12.5 mg/kg/injection, schedule: Q01DX005 (ip), vehicle: water 100 % of control | endpoint: mean survival time, dose: 25.0 mg/kg/injection, schedule: Q01DX005 (ip), vehicle: water 102 % of control | endpoint: mean survival time, dose: 50.0 mg/kg/injection, schedule: Q01DX005 (ip), vehicle: water 97 % of control | endpoint: mean survival time, dose: 100.0 mg/kg/injection, schedule: Q01DX005 (ip), vehicle: water 94 % of control | endpoint: mean survival time, dose: 200.0 mg/kg/injection, schedule: Q01DX005 (ip), vehicle: water 102 % of control

O=[N+]([O-])C=C(S)S
inactive: endpoint: mean survival time, dose: 25.0 mg/kg/injection, schedule: Q01DX009 (ip), vehicle: Klucel (hydroxypropylcellulose) (HPC) 111 % of control | endpoint: mean survival time, dose: 50.0 mg/kg/injection, schedule: Q01DX009 (ip), vehicle: Klucel (hydroxypropylcellulose) (HPC) 98 % of control | endpoint: mean survival time, dose: 100.0 mg/kg/injection, schedule: Q01DX009 (ip), vehicle: Klucel (hydroxypropylcellulose) (HPC) 93 % of control | endpoint: mean survival time, dose: 200.0 mg/kg/injection, schedule: Q01DX009 (ip), vehicle: Klucel (hydroxypropylcellulose) (HPC) 90 % of control

COc1c(C)c2c(c(O)c1CCNc1ccc(S(N)(=O)=O)cc1)C(=O)OC2
inactive: [12] 100 % of control | [13] 96 % of control | [14] 100 % of control

CN(C)P(=O)(OCCCOCc1ccccc1)N(CCCl)CCCl (stereo not given)
inactive: endpoint: mean survival time, dose: 25.0 mg/kg/injection, schedule: Q01DX001 (ip), vehicle: other 93 % of control | endpoint: mean survival time, dose: 50.0 mg/kg/injection, schedule: Q01DX001 (ip), vehicle: other 101 % of control | endpoint: mean survival time, dose: 100.0 mg/kg/injection, schedule: Q01DX001 (ip), vehicle: other 91 % of control | endpoint: mean survival time, dose: 200.0 mg/kg/injection, schedule: Q01DX001 (ip), vehicle: other 90 % of control | endpoint: mean survival time, dose: 400.0 mg/kg/injection, schedule: Q01DX001 (ip), vehicle: other 87 % of control

O=C1CCC(c2ccccc2)=NN1c1ccccc1
inactive: endpoint: mean survival time, dose: 100.0 mg/kg/injection, schedule: Q04DX003 (ip), vehicle: Klucel (hydroxypropylcellulose) (HPC) 98 % of control | endpoint: mean survival time, dose: 200.0 mg/kg/injection, schedule: Q04DX003 (ip), vehicle: Klucel (hydroxypropylcellulose) (HPC) 96 % of control | endpoint: mean survival time, dose: 400.0 mg/kg/injection, schedule: Q04DX003 (ip), vehicle: Klucel (hydroxypropylcellulose) (HPC) 96 % of control

CCN(CC)CCN(CC)C(=O)C(O)(c1ccccc1)c1ccccc1
inactive: endpoint: mean survival time, dose: 50.0 mg/kg/injection, schedule: Q01DX009 (ip), vehicle: saline 98 % of control | [7] 95 % of control | [8] 91 % of control

CNC(=O)/C(=C\c1ccccc1Cl)NC(C)=O
inactive: [1] 97 % of control | [3] 93 % of control | [5] 93 % of control

CC1OC(OC2C(O)C(CO)OC(OC3C(C(=O)O)OC(OC4CCC5(C)C(CCC6(C)C5CC=C5C7CC(C)(C)C(O)C(O)C7(CO)C(O)CC56C)C4(C)C)C(OC4OC(CO)C(O)C(O)C4O)C3O)C2O)C(O)C(O)C1O (stereo not given)
inactive: [15] 98 % of control | [12] 102 % of control | [13] 107 % of control

CC(C)OP(=O)(OCCCO)C(Cl)Cl (stereo not given)
inactive: endpoint: mean survival time, dose: 100.0 mg/kg/injection, schedule: Q01DX001 (ip), vehicle: saline 100 % of control | endpoint: mean survival time, dose: 200.0 mg/kg/injection, schedule: Q01DX001 (ip), vehicle: saline 102 % of control | endpoint: mean survival time, dose: 400.0 mg/kg/injection, schedule: Q01DX001 (ip), vehicle: saline 102 % of control

Cc1cccc(C2=N/C(=C\c3ccc(N(C)C)cc3)C(=O)O2)c1
inactive: endpoint: mean survival time, dose: 25.0 mg/kg/injection, schedule: Q04DX002 (ip), vehicle: saline with Tween-80 102 % of control | [15] 91 % of control | [12] 94 % of control | [13] 95 % of control | [14] 95 % of control

CCCCCCCCCCCCCCCC[N+](C)(CCO)Cc1ccccc1 (stereo not given)
inactive: endpoint: mean survival time, dose: 3.13 mg/kg/injection, schedule: Q04DX002 (ip), vehicle: saline with Tween-80 100 % of control | endpoint: mean survival time, dose: 6.25 mg/kg/injection, schedule: Q04DX002 (ip), vehicle: saline with Tween-80 100 % of control | endpoint: mean survival time, dose: 12.5 mg/kg/injection, schedule: Q04DX002 (ip), vehicle: saline with Tween-80 96 % of control

COC1OC(C(COC(C)=O)OC(C)=O)C(OC(C)=O)C(OC(C)=O)C1OC(C)=O (stereo not given)
inactive: [2] 95 % of control | [4] 102 % of control | [6] 104 % of control
